Laboratory results published in patent US9238639B2, “Aromatic ring compound” (TAKEDA PHARMACEUTICAL COMPANY LIMITED, priority 2012, dated 2016).

These compounds were tested against T1, human GOAT (Homo sapiens, UniProt Q96T53) (assay: GOAT enzyme activity measurement by HTRF method (human GOAT-expressing microsome fraction)). Conditions: 10 μM compound; human GOAT-expressing Sf9 microsome fraction; octanoyl-CoA and Ghrelin-biotin substrates; 0% control without compound, 100% control without enzyme.
T1 construct: made in house; host or cells: Sf9 insect cells (BacToBac baculovirus, pFastBac1 vector); microsome fraction
T1 sequence (Q96T53 1-435): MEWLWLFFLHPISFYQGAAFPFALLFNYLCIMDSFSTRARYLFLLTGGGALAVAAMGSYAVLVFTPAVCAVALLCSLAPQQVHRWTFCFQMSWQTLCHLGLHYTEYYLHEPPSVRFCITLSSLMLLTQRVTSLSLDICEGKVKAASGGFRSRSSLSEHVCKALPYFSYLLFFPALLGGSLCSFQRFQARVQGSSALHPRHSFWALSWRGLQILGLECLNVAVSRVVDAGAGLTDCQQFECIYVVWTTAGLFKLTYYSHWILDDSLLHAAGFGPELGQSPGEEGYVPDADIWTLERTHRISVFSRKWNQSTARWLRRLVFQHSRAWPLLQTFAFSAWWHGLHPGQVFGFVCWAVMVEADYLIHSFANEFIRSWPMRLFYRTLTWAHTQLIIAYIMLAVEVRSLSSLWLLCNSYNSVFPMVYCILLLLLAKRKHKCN
Format: biochemical
Method: Human GOAT (Accession NO: EU518495) cDNA was amplified by PCR including reaction of (1) 98° C., 1 min, (2) 35 repeats of 98° C., 10 sec·65° C., 15 sec·72° C., 80 sec, and (3) 72° C., 5 min, using human stomach cDNA library (Takara Bio) as a template and Pyrobest DNA Polymerase (Takara Bio). The amplified fragment was treated with restriction enzymes, inserted into Stu I/Not I sites of pFastBacl (Invitrogen) by using Ligation High (TOYOBO), and transfected into ECOS JM109 (Nippon Gene) to construct pFB/hGOAT.
Production of Baculovirus and Preparation of Insect Cell Microsome Fraction
For preparation of baculovirus from pFB/hGOAT, BacToBac baculovirus expression system (Invitrogen) was used. The virus titer was measured by Real-Time PCR using SYBR Green (Takara Bio). Sf9 cells were infected with the obtained baculovirus at Multiplicity of Infection (MOI)=0.2, and cultured for 70 hr. The Sf9 cells were recovered, suspended in a suspension buffer (TBS (0.3 M NaCl), 1 mM DTT, 1 mM EDTA, Complete (Roche) (1 tablet/50 mL)), and the cells were disrupted twice on ice at 20000 rpm, 30 sec using a polytron homogenizer. The cell disruption solution was centrifuged at 1000 rpm for 10 min at 4° C., the supernatant was further ultracentrifuged at 40000 rpm for 30 min at 4° C. and the precipitate was recovered. The obtained precipitate was suspended in the suspension buffer used above to give a human GOAT-expressing microsome fraction. The protein level was measured using BCA Protein assay Reagent (PIERCE).
Enzyme Activity Measurement by HTRF Method
A compound solution (2 μL) diluted with an assay buffer containing 50 mM Tris-HCl (pH 7.5), 0.5% TWEEN20, and Complete to 15% DMSO and 90 μg/mL human GOAT-expressing microsome fraction (2 μL) were incubated at room temperature for 20 min, after which a substrate mixed solution (2 μL) containing 30 μM octanoyl-CoA (CHEM-IMPLEX) and 3 μM Ghrelin-biotin ([…]epsilon aminocaproic acid-biotin (Greiner Coutom synthesis)) was added to 384 white small volume plate (Greiner). After reaction for 20 min, 2 μL of citrate buffer (pH3) (mixed solution of 0.1 M citric acid (39.8 mL) and 0.2 M Na2HPO4 (10.2 mL)), 2 μL of 25 nM anti-active ghrelin antibody (produced in mouse), 5 μL of Eu(K)-Anti Mouse IgG Pab (Cis Bio) 100-fold diluted with HTRF detection buffer (Cis Bio) and 5 μL of streptavidin-Xlent (Cis Bio) 66.6-fold diluted with HTRF detection buffer (Cis Bio) were added. After incubation at room temperature for 1 hr or longer, the fluorescence values at 620 nm and 665 nm were measured by Envision (PerkinElmer). The data was calculated [(665 nm signal/620 nm signal)×10^4], and the inhibitory activity against human GOAT was shown by the data where 0% control was without compound, and 100% control was without enzyme.

Row | inhibition at 10 µM | Compound
1 | 103% | Cn1nc(C(F)(F)F)cc1COc1cc(C(F)(F)F)c2c(CC(=O)O)csc2c1 [Example 32, (6-((1-Methyl-3-(trifluoromethyl)-1H-pyrazol-5-yl)methoxy)-4-(trifluoromethyl)-1-benzothiophen-3-yl)acetic acid]
2 | 96.1% | COC(=O)Cc1csc2c(F)c(OCc3cc(C(F)(F)F)nn3C)cc(C)c12 [Example 33, Methyl(7-fluoro-4-methyl-6-((1-methyl-3-(trifluoromethyl)-1H-pyrazol-5-yl)methoxy)-1-benzothiophen-3-yl)acetate]
3 | 104% | Cc1cc(OCc2cc(C(F)(F)F)nn2C)c(F)c2scc(CC(=O)O)c12 [Example 34, (7-Fluoro-4-methyl-6-((1-methyl-3-(trifluoromethyl)-1H-pyrazol-5-yl)methoxy)-1-benzothiophen-3-yl)acetic acid]
4 | 94% | COC(=O)Cc1csc2c(F)c(OCc3ccc(C(F)(F)F)nc3C)cc(C)c12 [Example 35, Methyl(7-fluoro-4-methyl-6-((2-methyl-6-(trifluoromethyl)pyridin-3-yl)methoxy)-1-benzothiophen-3-yl)acetate]
5 | 106% | Cc1nc(C(F)(F)F)ccc1COc1cc(C)c2c(CC(=O)O)csc2c1F [Example 36, (7-Fluoro-4-methyl-6-((2-methyl-6-(trifluoromethyl)pyridin-3-yl)methoxy)-1-benzothiophen-3-yl)acetic acid]
6 | 98.9% | COC(=O)Cc1csc2c(F)c(OCc3cc(C(F)(F)F)nn3C)cc(Cl)c12 [Example 37, Methyl(4-chloro-7-fluoro-6-((1-methyl-3-(trifluoromethyl)-1H-pyrazol-5-yl)methoxy)-1-benzothiophen-3-yl)acetate]
7 | 107% | Cn1nc(C(F)(F)F)cc1COc1cc(Cl)c2c(CC(=O)O)csc2c1F [Example 38, (4-Chloro-7-fluoro-6-((1-methyl-3-(trifluoromethyl)-1H-pyrazol-5-yl)methoxy)-1-benzothiophen-3-yl)acetic acid]
8 | 88.6% | COC(=O)Cc1csc2c(F)c(OCc3ccc(C(F)(F)F)nc3C)cc(Cl)c12 [Example 39, Methyl(4-chloro-7-fluoro-6-((2-methyl-6-(trifluoromethyl)pyridin-3-yl)methoxy)-1-benzothiophen-3-yl)acetate]
9 | 106% | Cc1nc(C(F)(F)F)ccc1COc1cc(Cl)c2c(CC(=O)O)csc2c1F [Example 40, (4-Chloro-7-fluoro-6-((2-methyl-6-(trifluoromethyl)pyridin-3-yl)methoxy)-1-benzothiophen-3-yl)acetic acid]
10 | 100% | O=C(O)Cc1coc2c(Cl)c(OCc3ccc(Cl)cc3Cl)ccc12 [Example 42, (7-Chloro-6-((2,4-dichlorobenzyl)oxy)-1-benzofuran-3-yl)acetic acid]
11 | 92.7% | COC(=O)Cc1coc2c(C)c(OCc3ccc(C)nc3C)cc(C)c12 [Example 43, Methyl(6-((2,6-dimethylpyridin-3-yl)methoxy)-4,7-dimethyl-1-benzofuran-3-yl)acetate]
12 | 102% | Cc1ccc(COc2cc(C)c3c(CC(=O)O)coc3c2C)c(C)n1 [Example 44, (6-((2,6-Dimethylpyridin-3-yl)methoxy)-4,7-dimethyl-1-benzofuran-3-yl)acetic acid]
13 | 68.7% | COC(=O)Cc1coc2c(C)c(OCc3ccc(Cl)cc3Cl)cc(C)c12 [Example 45, Methyl(6-((2,4-dichlorobenzyl)oxy)-4,7-dimethyl-1-benzofuran-3-yl)acetate]
14 | 103% | Cc1c(OCc2ccc(Cl)cc2Cl)cc(C)c2c(CC(=O)O)coc12 [Example 46, (6-((2,4-Dichlorobenzyl)oxy)-4,7-dimethyl-1-benzofuran-3-yl)acetic acid]
15 | 99% | O=C(O)CC1CSc2cc(OCc3ccc(Cl)cc3Cl)ccc21 (centres unmarked) [Example 50, (6-((2,4-Dichlorobenzyl)oxy)-2,3-dihydro-1-benzothiophen-3-yl)acetic acid]
16 | 79% | O=C(O)CC1CS(=O)(=O)c2cc(OCc3ccc(Cl)cc3Cl)ccc21 (centres unmarked) [Example 52, (6-((2,4-Dichlorobenzyl)oxy)-1,1-dioxido-2,3-dihydro-1-benzothiophen-3-yl)acetic acid]
17 | 56% | CCOC(=O)CNC(=O)Cc1csc2cc(OCc3ccc(Cl)cc3Cl)ccc12 [Example 53, Ethyl N-((6-((2,4-dichlorobenzyl)oxy)-1-benzothiophen-3-yl)acetyl)glycinate]
18 | 86% | COC(=O)[C@H](CO)NC(=O)Cc1csc2cc(OCc3ccc(Cl)cc3Cl)ccc12 [Example 54, Methyl N-((6-((2,4-dichlorobenzyl)oxy)-1-benzothiophen-3-yl)acetyl)serinate]
19 | 95% | O=C(O)CNC(=O)Cc1csc2cc(OCc3ccc(Cl)cc3Cl)ccc12 [Example 55, N-((6-((2,4-Dichlorobenzyl)oxy)-1-benzothiophen-3-yl)acetyl)glycine]
20 | 97% | O=C(Cc1csc2cc(OCc3ccc(Cl)cc3Cl)ccc12)N[C@@H](CO)C(=O)O [Example 56, N-((6-((2,4-Dichlorobenzyl)oxy)-1-benzothiophen-3-yl)acetyl)serine]
21 | 99.3% | O=C(O)Cc1csc2cc(SCc3ccc(Cl)cc3Cl)ccc12 [Example 80, (6-((2,4-Dichlorobenzyl)sulfanyl)-1-benzothiophen-3-yl)acetic acid]
22 | 83% | O=C(O)Cc1csc2cc(S(=O)(=O)Cc3ccc(Cl)cc3Cl)ccc12 [Example 83, (6-((2,4-Dichlorobenzyl)sulfonyl)-1-benzothiophen-3-yl)acetic acid]
23 | 67% | O=C(O)Cc1csc2cc([S+]([O-])Cc3ccc(Cl)cc3Cl)ccc12 (centres unmarked) [Example 84, (6-((2,4-Dichlorobenzyl)sulfinyl)-1-benzothiophen-3-yl)acetic acid]
24 | 93.1% | Cc1nc(C(F)(F)F)ccc1COc1ccc2c(CC(=O)O)csc2c1 [Example 135, (6-((2-Methyl-6-(trifluoromethyl)pyridin-3-yl)methoxy)-1-benzothiophen-3-yl)acetic acid]
25 | 97.3% | Cc1nc(C(F)(F)F)ncc1COc1ccc2c(CC(=O)O)csc2c1 [Example 137, (6-((4-Methyl-2-(trifluoromethyl)pyrimidin-5-yl)methoxy)-1-benzothiophen-3-yl)acetic acid]
26 | 83.2% | CCS(=O)(=O)NC(=O)Cc1csc2cc(OCc3ccc(Cl)cc3Cl)ccc12 [Example 138, 2-(6-((2,4-Dichlorobenzyl)oxy)-1-benzothiophen-3-yl)-N-(ethylsulfonyl)acetamide]
27 | 100% | Cc1nc(C(F)(F)F)ncc1COc1cc(C)c2c(CC(=O)O)csc2c1 [Example 140, (4-Methyl-6-((4-methyl-2-(trifluoromethyl)pyrimidin-5-yl)methoxy)-1-benzothiophen-3-yl)acetic acid]
28 | 97.3% | Cc1ccc(CCc2ccc3c(CC(=O)O)csc3c2)c(C)n1 [Example 182, (6-(2-(2,6-Dimethylpyridin-3-yl)ethyl)-1-benzothiophen-3-yl)acetic acid]
29 | 83.1% | Cc1ccc(/C=C/c2ccc3c(CC(=O)O)csc3c2)c(C)n1 [Example 183, (6-((E)-2-(2,6-dimethylpyridin-3-yl)vinyl)-1-benzothiophen-3-yl)acetic acid]
